Test results as given in the supplement of paper PMC10331698.
± gives the standard deviation of the averaged measurements.

How the values were obtained:
Assay in all cases: level (log10 ratio to DMSO vehicle control); higher = higher biomarker level / cell amount than vehicle control
Conditions in all cases: in DMSO
[1] = compound: O=C(O)C(F)(F)C(F)(F)C(F)(F)C(F)(F)C(F)(F)C(F)(F)C(F)(F)C(F)(F)C(F)(F)C(F)F [11-H-Perfluoroundecanoic acid]
Experimental: (§1)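 BioMAP Diversity Plus panel of 12 human primary cell co-culture systems (3C, 4H, LPS, SAg, BT, BF4T, BE3C, CASM3C, HDF3CGF, KF3CT, MyoF, Mphg). Compounds were added 1 h before stimulation and left for 24 h (MyoF 48 h; BT 72 h for soluble read-outs or 6 d for IgG). Biomarkers were read by ELISA, cytotoxicity by SRB, PBMC viability and proliferation by Alamar Blue. Each well value was divided by the mean of 8 DMSO control wells on the same plate and log10 transformed; duplicate blinded samples were tested at 4 concentrations.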

[2] = compound: NC(=O)C(F)(F)C(F)(F)C(F)(F)C(F)F
Experimental: as §1

[3] = compound: O=S(=O)(O)C(F)(F)C(F)(F)C(F)(F)C(F)(F)C(F)(F)C(F)(F)C(F)(F)C(F)(F)C(F)(F)C(F)(F)F [Sodium perfluorodecanesulfonate]
Experimental: as §1

[4] = compound: FC(F)(F)C(F)(F)C(F)(F)C(F)(F)C(F)(F)C(F)(F)CC1CO1 [3-(Perfluorohexyl)-1,2-epoxypropane]
Experimental: as §1

[5] = compound: C=C(C)C(=O)OCCC(F)(F)C(F)(F)C(F)(F)C(F)(F)C(F)(F)C(F)(F)F [6:2 Fluorotelomer methacrylate]
Experimental: as §1

Test System | level (log10) ([1]; 6700 nM) | level (log10) ([1]; 20000 nM) | level (log10) ([2]; 6700 nM) | level (log10) ([2]; 20000 nM) | level (log10) ([2]; 60000 nM) | level (log10) ([3]; 1500 nM) | level (log10) ([3]; 4400 nM) | level (log10) ([3]; 13000 nM) | level (log10) ([3]; 40000 nM) | level (log10) ([4]; 6700 nM) | level (log10) ([4]; 20000 nM) | level (log10) ([4]; 60000 nM) | level (log10) ([5]; 6700 nM) | level (log10) ([5]; 20000 nM) | level (log10) ([5]; 60000 nM)
lMphg:SRB | -0.004 ± 0.0057 | 0.017 ± 0.0099 | -0.008 ± 0.0057 | -0.007 ± 0.0042 | -0.0005 ± 0.018 | -0.0075 ± 0.012 | -0.0025 ± 0.00071 | -0.001 ± 0.0099 | -0.011 ± 0.0099 | -0.012 ± 0.0042 | -0.016 ± 0.0071 | 0.0115 ± 0.005 | -0.0065 ± 0.025 | -0.0115 ± 0.015 | -0.0175 ± 0.00071
MyoF:CXCL8/IL-8 | -0.0375 ± 0.03 | -0.071 ± 0.028 | -0.0285 ± 0.0092 | -0.0185 ± 0.028 | 0.018 ± 0.054 | -0.04 ± 0.0071 | -0.039 ± 0.0071 | -0.021 ± 0.023 | 0.02 ± 0.044 | -0.019 | -0.0205 ± 0.025 | -0.005 ± 0.031 | -0.0055 ± 0.021 | 0.051 ± 0.0057 | 0.041 ± 0.0085
KF3CT:uPA | -0.003 | 0.0055 ± 0.0092 | 0.008 ± 0.025 | -0.0125 ± 0.028 | -0.008 ± 0.021 | -0.0325 ± 0.016 | 0.0025 ± 0.018 | -0.001 ± 0.037 | 0.0035 ± 0.0021 | 0.006 ± 0.011 | 0.001 ± 0.011 | -0.0015 ± 0.005 | -0.016 ± 0.013 | -0.011 ± 0.023 | -0.0015 ± 0.0078
3C:CD106/VCAM-1 | -0.0105 ± 0.023 | -0.011 ± 0.0099 | -0.001 ± 0.024 | 0.0135 ± 0.0021 | 0.007 ± 0.016 | -0.0035 ± 0.0035 | 0.0055 ± 0.011 | -0.016 ± 0.013 | 0.0065 ± 0.0078 | -0.0145 ± 0.018 | -0.033 ± 0.025 | -0.0395 ± 0.011 | -0.0265 ± 0.026 | -0.029 ± 0.037 | -0.0185 ± 0.043
lMphg:CD69 | -0.054 ± 0.0085 | -0.039 ± 0.013 | 0.0265 ± 0.018 | -0.015 ± 0.0071 | -0.0115 ± 0.0078 | -0.001 ± 0.014 | -0.022 ± 0.052 | -0.0095 ± 0.032 | -0.084 ± 0.011 | 0.004 ± 0.025 | -0.007 ± 0.021 | 0.0235 ± 0.049 | -0.0125 ± 0.049 | -0.046 ± 0.0028 | -0.0915 ± 0.019
CASM3C:CD141/Thrombomodulin | -0.015 ± 0.021 | -0.0085 ± 0.019 | -0.008 ± 0.0042 | 0.0085 ± 0.025 | 0.0085 ± 0.0092 | 0.0625 ± 0.015 | 0.034 ± 0.0028 | 0.03 ± 0.038 | 0.166 ± 0.0092 | 0.011 ± 0.011 | 0.005 ± 0.013 | 0.0225 ± 0.029 | 0.016 ± 0.071 | 0.021 ± 0.067 | 0.03 ± 0.081
MyoF:alpha-SM Actin | -0.044 ± 0.033 | -0.11 ± 0.033 | -0.006 ± 0.0057 | 0.0025 ± 0.023 | -0.002 ± 0.033 | 0.01 ± 0.0057 | -0.0065 ± 0.013 | 0.006 ± 0.025 | 0.0175 ± 0.0021 | 0.0205 ± 0.015 | 0.0035 ± 0.0064 | 0.0185 ± 0.0035 | 0.003 ± 0.011 | -0.02 ± 0.038 | -0.0015 ± 0.018
CASM3C:IL-6 | -0.027 ± 0.014 | -0.0395 ± 0.03 | -0.0315 ± 0.0064 | -0.0165 ± 0.012 | 0.017 ± 0.05 | -0.013 ± 0.018 | -0.053 ± 0.05 | 0.055 ± 0.0099 | 0.108 ± 0.018 | -0.0375 ± 0.025 | -0.0335 ± 0.012 | 0.001 ± 0.089 | -0.0405 ± 0.035 | -0.046 ± 0.0042 | 0.005 ± 0.0028
CASM3C:CD106/VCAM-1 | -0.016 ± 0.027 | -0.023 ± 0.021 | -0.009 ± 0.0057 | -0.003 ± 0.014 | -0.008 ± 0.014 | -0.043 ± 0.037 | -0.0795 ± 0.026 | -0.158 ± 0.037 | -0.153 ± 0.045 | -0.024 ± 0.0099 | -0.0175 ± 0.022 | -0.01 ± 0.034 | -0.0005 ± 0.011 | -0.005 ± 0.016 | -0.005 ± 0.0042
HDF3CGF:CXCL9/MIG | -0.089 ± 0.0099 | -0.222 ± 0.014 | 0.0055 ± 0.00071 | -0.0065 ± 0.012 | -0.0025 ± 0.0035 | -0.0085 ± 0.022 | -0.0565 ± 0.00071 | 0.029 ± 0.0085 | 0.049 ± 0.014 | 0.0095 ± 0.0092 | 0.0085 ± 0.016 | -0.0085 ± 0.013 | 0.0025 ± 0.019 | 0.0095 ± 0.00071 | 0.015 ± 0.0085
KF3CT:CCL2/MCP-1 | -0.043 ± 0.021 | -0.129 ± 0.0078 | -0.0055 ± 0.018 | -0.0245 ± 0.0078 | 0.0205 ± 0.026 | 0.037 ± 0.0099 | -0.0155 ± 0.042 | -0.0485 ± 0.029 | -0.023 ± 0.038 | 0.0005 ± 0.0092 | -0.0125 ± 0.03 | 0.0075 ± 0.053 | -0.051 ± 0.021 | -0.0475 ± 0.005 | -0.0235 ± 0.005
CASM3C:Serum Amyloid A | 0.0155 ± 0.00071 | 0.0205 ± 0.036 | -0.054 ± 0.071 | -0.0535 ± 0.026 | -0.003 ± 0.024 | -0.0545 ± 0.022 | -0.0135 ± 0.011 | 0.0365 ± 0.036 | 0.182 ± 0.028 | -0.0115 ± 0.042 | -0.012 ± 0.013 | 0.031 ± 0.023 | -0.032 ± 0.023 | -0.051 ± 0.02 | -0.0425 ± 0.023
MyoF:PAI-I | 0.0105 ± 0.012 | -0.013 ± 0.02 | -0.0125 ± 0.013 | -0.0125 ± 0.0064 | 0.005 ± 0.018 | 0.019 ± 0.02 | 0.0335 ± 0.029 | 0.0505 ± 0.0035 | 0.063 ± 0.0085 | 0.011 ± 0.0099 | -0.0035 ± 0.00071 | 0.0055 ± 0.0021 | -0.0165 ± 0.015 | -0.016 ± 0.0028 | -0.0165 ± 0.005
HDF3CGF:MMP-1 | -0.096 ± 0.034 | -0.0815 ± 0.005 | 0.0005 ± 0.00071 | -0.006 ± 0.0042 | 0.003 ± 0.0071 | -0.0125 ± 0.0092 | -0.0145 ± 0.0078 | -0.007 ± 0.024 | 0.027 ± 0.024 | 0.0005 ± 0.0021 | 0.004 ± 0.0042 | 0.003 ± 0.0071 | 0.023 ± 0.0085 | 0.031 ± 0.0028 | 0.039 ± 0.0057
MyoF:Collagen I | -0.0625 ± 0.0092 | -0.312 ± 0.023 | -0.0115 ± 0.015 | -0.002 ± 0.02 | 0.006 ± 0.017 | -0.003 ± 0.02 | -0.006 ± 0.0028 | -0.003 ± 0.0057 | -0.0415 ± 0.00071 | -0.011 ± 0.018 | -0.003 ± 0.0028 | 0.007 ± 0.02 | -0.0085 ± 0.0092 | -0.0095 ± 0.00071 | -0.009 ± 0.0099
lMphg:SRB-Mphg | 0.008 ± 0.011 | -0.0095 ± 0.03 | 0.0005 ± 0.013 | -0.0045 ± 0.015 | 0.013 ± 0.027 | -0.067 ± 0.12 | -0.0945 ± 0.083 | -0.119 ± 0.053 | -0.057 ± 0.13 | 0.0095 ± 0.0092 | 0.0035 ± 0.012 | 0.013 ± 0.0014 | 0.01 ± 0.011 | 0.0095 ± 0.0092 | 0.0105 ± 0.0021
4H:VEGFR2 | -0.0245 ± 0.032 | 0.001 ± 0.047 | 0 ± 0.0042 | -0.006 ± 0.0099 | -0.001 ± 0.054 | 0.003 ± 0.013 | -0.03 ± 0.059 | -0.02 ± 0.073 | 0.024 ± 0.047 | -0.0015 ± 0.019 | 0.0235 ± 0.011 | 0.017 ± 0.014 | -0.047 ± 0.034 | -0.0305 ± 0.00071 | -0.0265 ± 0.039
CASM3C:SRB | 0.0025 ± 0.0078 | 0.008 ± 0.0028 | 0.0025 ± 0.00071 | -0.0115 ± 0.005 | -0.0085 ± 0.016 | -0.0035 ± 0.011 | -0.005 ± 0.0085 | 0 ± 0.0028 | -0.007 ± 0.0085 | 0 ± 0.0085 | -0.009 ± 0.0014 | 0.0025 ± 0.00071 | 0.001 ± 0.0057 | -0.0035 ± 0.0021 | 0.002 ± 0.0042
MyoF:bFGF | 0.006 ± 0.0099 | 0.005 | -0.0125 ± 0.005 | -0.008 ± 0.017 | -0.0155 ± 0.005 | 0.0025 ± 0.005 | 0.033 | 0.015 ± 0.0057 | 0.023 ± 0.011 | 0.02 ± 0.02 | 0.02 ± 0.018 | 0.014 ± 0.0057 | -0.0025 ± 0.0064 | -0.0115 ± 0.018 | -0.0085 ± 0.011
